Assay results from the supplement of paper PMC10307832.

Columns and labels:
Assay in all cases: relative viability (nuclei count vs DMSO), 5 days (fraction); higher = more cells survive
CAL-12T = system: CAL-12T
Method in brief: (§1)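 Lung cancer cell lines, seeded in 1536-well plates, were treated the following day by pin tool with a single drug or with five library-drug doses (not always all listed) in √10 steps on top of a fixed anchor-drug dose. Cells were fixed and nuclei stained in one step after 5 days, and nuclei were counted. Relative viability is the nuclei count for treated wells divided by that for vehicle wells, reported as medians of duplicate plates.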

COR-L 105 = system: COR-L 105
Method in brief: as §1

ChaGo-K-1 = system: ChaGo-K-1
Method in brief: as §1

EMC-BAC-2 = system: EMC-BAC-2
Method in brief: as §1

EPLC-272H = system: EPLC-272H
Method in brief: as §1

HCC-15 = system: HCC-15
Method in brief: as §1

HCC-78 = system: HCC-78
Method in brief: as §1

HOP-62 = system: HOP-62
Method in brief: as §1

LXF-289 = system: LXF-289
Method in brief: as §1

NCI-H1666 = system: NCI-H1666
Method in brief: as §1

NCI-H1755 = system: NCI-H1755
Method in brief: as §1

NCI-H1915 = system: NCI-H1915
Method in brief: as §1

NCI-H1975 = system: NCI-H1975
Method in brief: as §1

NCI-H2023 = system: NCI-H2023
Method in brief: as §1

NCI-H2085 = system: NCI-H2085
Method in brief: as §1

NCI-H2126 = system: NCI-H2126
Method in brief: as §1

NCI-H3122 = system: NCI-H3122
Method in brief: as §1

NCI-H322M = system: NCI-H322M
Method in brief: as §1

NCI-H358 = system: NCI-H358
Method in brief: as §1

NCI-H441 = system: NCI-H441
Method in brief: as §1

UMC-11 = system: UMC-11
Method in brief: as §1

`Cc1sc2c(c1C)C(c1ccc(Cl)cc1)=N[C@@H](CC(=O)OC(C)(C)C)c1nnc(C)n1-2` [JQ1] + Nc1nc2[nH]cc(CCc3ccc(C(=O)N[C@@H](CCC(=O)O)C(=O)O)cc3)c2c(=O)[nH]1 [Pemetrexed] (partner 0.2 µM) was tested, and the relative viability (CAL-12T; first compound 0.04 µM) was 1.22, the relative viability (CAL-12T; first compound 0.1265 µM) was 1.18 and the relative viability (CAL-12T; first compound 0.4 µM) was 1.08. For the same molecule, the relative viability (CAL-12T; first compound 1.265 µM) was 0.465, the relative viability (CAL-12T; first compound 4 µM) was 0.249 and the relative viability (COR-L 105; first compound 0.04 µM) was 0.818. The relative viability (COR-L 105; first compound 0.1265 µM) was 0.566, the relative viability (COR-L 105; first compound 0.4 µM) was 0.742 and the relative viability (COR-L 105; first compound 1.265 µM) was 0.385. The relative viability (COR-L 105; first compound 4 µM) was 0.413, the relative viability (ChaGo-K-1; first compound 0.04 µM) was 0.25 and the relative viability (ChaGo-K-1; first compound 0.1265 µM) was 0.256. It also gave a relative viability (ChaGo-K-1; first compound 0.4 µM) of 0.245, a relative viability (ChaGo-K-1; first compound 1.265 µM) of 0.252 and a relative viability (ChaGo-K-1; first compound 4 µM) of 0.243. The relative viability (EMC-BAC-2; first compound 0.04 µM) was 0.437, the relative viability (EMC-BAC-2; first compound 0.1265 µM) was 0.369 and the relative viability (EMC-BAC-2; first compound 0.4 µM) was 0.365. For the same molecule, the relative viability (EMC-BAC-2; first compound 1.265 µM) was 0.366, the relative viability (EMC-BAC-2; first compound 4 µM) was 0.33 and the relative viability (EPLC-272H; first compound 0.04 µM) was 0.309. For the same molecule, the relative viability (EPLC-272H; first compound 0.1265 µM) was 0.336, the relative viability (EPLC-272H; first compound 0.4 µM) was 0.29 and the relative viability (EPLC-272H; first compound 1.265 µM) was 0.298. The relative viability (EPLC-272H; first compound 4 µM) was 0.317, the relative viability (HCC-15; first compound 0.04 µM) was 0.238 and the relative viability (HCC-15; first compound 0.1265 µM) was 0.224. For the same molecule, the relative viability (HCC-15; first compound 0.4 µM) was 0.19, the relative viability (HCC-15; first compound 1.265 µM) was 0.182 and the relative viability (HCC-15; first compound 4 µM) was 0.199. The relative viability (HCC-78; first compound 0.04 µM) was 0.87, the relative viability (HCC-78; first compound 0.1265 µM) was 0.957 and the relative viability (HCC-78; first compound 0.4 µM) was 0.977. It also gave a relative viability (HCC-78; first compound 1.265 µM) of 0.91, a relative viability (HCC-78; first compound 4 µM) of 0.866 and a relative viability (HOP-62; first compound 0.04 µM) of 0.271. The relative viability (HOP-62; first compound 0.1265 µM) was 0.266, the relative viability (HOP-62; first compound 0.4 µM) was 0.26 and the relative viability (HOP-62; first compound 1.265 µM) was 0.137. The relative viability (HOP-62; first compound 4 µM) was 0.106, the relative viability (LXF-289; first compound 0.04 µM) was 0.915 and the relative viability (LXF-289; first compound 0.1265 µM) was 0.808. For the same molecule, the relative viability (LXF-289; first compound 0.4 µM) was 0.867, the relative viability (LXF-289; first compound 1.265 µM) was 0.59 and the relative viability (LXF-289; first compound 4 µM) was 0.541. The relative viability (NCI-H1666; first compound 0.04 µM) was 0.801, the relative viability (NCI-H1666; first compound 0.1265 µM) was 0.786 and the relative viability (NCI-H1666; first compound 0.4 µM) was 0.697. For the same molecule, the relative viability (NCI-H1666; first compound 1.265 µM) was 0.659, the relative viability (NCI-H1666; first compound 4 µM) was 0.602 and the relative viability (NCI-H1755; first compound 0.04 µM) was 0.444. The relative viability (NCI-H1755; first compound 0.1265 µM) was 0.444, the relative viability (NCI-H1755; first compound 0.4 µM) was 0.387 and the relative viability (NCI-H1755; first compound 1.265 µM) was 0.323. The relative viability (NCI-H1755; first compound 4 µM) was 0.324, the relative viability (NCI-H1915; first compound 0.04 µM) was 0.46 and the relative viability (NCI-H1915; first compound 0.4 µM) was 0.323. It also gave a relative viability (NCI-H1915; first compound 1.265 µM) of 0.295, a relative viability (NCI-H1915; first compound 4 µM) of 0.167 and a relative viability (NCI-H1975; first compound 0.04 µM) of 0.284. It also gave a relative viability (NCI-H1975; first compound 0.1265 µM) of 0.233, a relative viability (NCI-H1975; first compound 0.4 µM) of 0.234 and a relative viability (NCI-H1975; first compound 1.265 µM) of 0.19. For the same molecule, the relative viability (NCI-H1975; first compound 4 µM) was 0.173, the relative viability (NCI-H2023; first compound 0.04 µM) was 0.231 and the relative viability (NCI-H2023; first compound 0.1265 µM) was 0.195. It also gave a relative viability (NCI-H2023; first compound 0.4 µM) of 0.139, a relative viability (NCI-H2023; first compound 1.265 µM) of 0.101 and a relative viability (NCI-H2023; first compound 4 µM) of 0.109. It also gave a relative viability (NCI-H2085; first compound 0.04 µM) of 0.738, a relative viability (NCI-H2085; first compound 0.1265 µM) of 0.721 and a relative viability (NCI-H2085; first compound 0.4 µM) of 0.668. The relative viability (NCI-H2085; first compound 1.265 µM) was 0.403, the relative viability (NCI-H2085; first compound 4 µM) was 0.374 and the relative viability (NCI-H2126; first compound 0.04 µM) was 0.71. For the same molecule, the relative viability (NCI-H2126; first compound 0.1265 µM) was 0.721, the relative viability (NCI-H2126; first compound 0.4 µM) was 0.624 and the relative viability (NCI-H2126; first compound 1.265 µM) was 0.519. The relative viability (NCI-H2126; first compound 4 µM) was 0.413, the relative viability (NCI-H3122; first compound 0.04 µM) was 0.193 and the relative viability (NCI-H3122; first compound 0.1265 µM) was 0.16. For the same molecule, the relative viability (NCI-H3122; first compound 0.4 µM) was 0.186, the relative viability (NCI-H3122; first compound 1.265 µM) was 0.118 and the relative viability (NCI-H3122; first compound 4 µM) was 0.12. The relative viability (NCI-H322M; first compound 0.04 µM) was 0.625, the relative viability (NCI-H322M; first compound 0.1265 µM) was 0.648 and the relative viability (NCI-H322M; first compound 0.4 µM) was 0.515. For the same molecule, the relative viability (NCI-H322M; first compound 1.265 µM) was 0.495, the relative viability (NCI-H322M; first compound 4 µM) was 0.381 and the relative viability (NCI-H358; first compound 0.04 µM) was 0.185. It also gave a relative viability (NCI-H358; first compound 0.1265 µM) of 0.198, a relative viability (NCI-H358; first compound 0.4 µM) of 0.199 and a relative viability (NCI-H358; first compound 1.265 µM) of 0.16. The relative viability (NCI-H358; first compound 4 µM) was 0.153, the relative viability (NCI-H441; first compound 0.04 µM) was 0.271 and the relative viability (NCI-H441; first compound 0.1265 µM) was 0.263. For the same molecule, the relative viability (NCI-H441; first compound 0.4 µM) was 0.273, the relative viability (NCI-H441; first compound 1.265 µM) was 0.213 and the relative viability (NCI-H441; first compound 4 µM) was 0.186. For the same molecule, the relative viability (UMC-11; first compound 0.04 µM) was 0.73, the relative viability (UMC-11; first compound 0.1265 µM) was 0.584 and the relative viability (UMC-11; first compound 0.4 µM) was 0.352. The relative viability (UMC-11; first compound 1.265 µM) was 0.254 and the relative viability (UMC-11; first compound 4 µM) was 0.193.
